Calls of active or inactive are those of the source. No rule for the calls is given here.
Tested on: rodent carcinogenicity bioassays, tumor incidence
Assay: CCRIS carcinogenicity studies
Procedure, shortened: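 Archive of carcinogenicity, mutagenicity, tumor promotion and tumor inhibition results drawn from journals, NCI reports and other sources, expert-reviewed; covers 1985-2011 and is no longer updated.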

C[C@H]1C(=O)O[C@@H]2CCN3CC=C(COC(=O)[C@](C)(O)[C@]1(C)O)[C@H]23
carcinogen call (Species: RAT, Route: ORAL, Tumor Site: Type of Lesion: LIVER): active; positive

c1cc(OCC2CO2)cc(OCC2CO2)c1 (stereo unspecified)
carcinogen call (Species: MOUSE, Strain/Sex: B6C3F1/FEMALE, Route: GAVAGE, Dose: 0, 50, 100 MG/KG BW IN CORN OIL 5 D/WK FOR 103 WK (STUDY DURATION: 105 WK), Dose: 0, 50, 100 MG/KG BW IN CORN OIL 5 D/WK FOR 103 WK (STUDY DURATION: 105 WK), Tumor Site: Type of Lesion: FORESTOMACH: SQUAMOUS CELL CARCINOMA, SQUAMOUS CELL PAPILLOMA): active; positive
carcinogen call (Species: MOUSE, Strain/Sex: B6C3F1/FEMALE, Route: GAVAGE, Dose: 0, 50, 100 MG/KG IN CORN OIL 5 D/WK FOR 103 WK (STUDY DURATION: 104-105 WK), Dose: 0, 50, 100 MG/KG IN CORN OIL 5 D/WK FOR 103 WK (STUDY DURATION: 104-105 WK), Tumor Site: Type of Lesion: FORESTOMACH: SQUAMOUS CELL PAPILLOMA, SQUAMOUS CELL CARCINOMA): active; positive
carcinogen call (Species: MOUSE, Strain/Sex: B6C3F1/MALE, Route: GAVAGE, Dose: 0, 50, 100 MG/KG BW IN CORN OIL 5 D/WK FOR 103 WK (STUDY DURATION: 105 WK), Dose: 0, 50, 100 MG/KG BW IN CORN OIL 5 D/WK FOR 103 WK (STUDY DURATION: 105 WK), Tumor Site: Type of Lesion: FORESTOMACH: SQUAMOUS CELL CARCINOMA, SQUAMOUS CELL PAPILLOMA): active; positive
carcinogen call (Species: MOUSE, Strain/Sex: B6C3F1/MALE, Route: GAVAGE, Dose: 0, 50, 100 MG/KG IN CORN OIL 5 D/WK FOR 103 WK (STUDY DURATION: 104-105 WK), Dose: 0, 50, 100 MG/KG IN CORN OIL 5 D/WK FOR 103 WK (STUDY DURATION: 104-105 WK), Tumor Site: Type of Lesion: FORESTOMACH: SQUAMOUS CELL PAPILLOMA, SQUAMOUS CELL CARCINOMA): active; positive
carcinogen call (Species: RAT, Strain/Sex: F344/FEMALE, Route: GAVAGE, Dose: 0, 12, 25, 50 MG/KG BW IN CORN OIL 5 D/WK FOR 103 WK (STUDY DURATION: 105 WK), Dose: 0, 12, 25, 50 MG/KG BW IN CORN OIL 5 D/WK FOR 103 WK (STUDY DURATION: 105 WK), Tumor Site: Type of Lesion: FORESTOMACH: SQUAMOUS CELL CARCINOMA, SQUAMOUS CELL PAPILLOMA): active; positive
carcinogen call (Species: RAT, Strain/Sex: F344/FEMALE, Route: GAVAGE, Dose: 0, 12, 25, 50 MG/KG IN CORN OIL 5 D/WK FOR 103 WK (STUDY DURATION: 104-105 WK), Dose: 0, 12, 25, 50 MG/KG IN CORN OIL 5 D/WK FOR 103 WK (STUDY DURATION: 104-105 WK), Tumor Site: Type of Lesion: FORESTOMACH: SQUAMOUS CELL PAPILLOMA, SQUAMOUS CELL CARCINOMA): active; positive
carcinogen call (Species: RAT, Strain/Sex: F344/MALE, Route: GAVAGE, Dose: 0, 12, 25, 50 MG/KG IN CORN OIL 5 D/WK FOR 103 WK (STUDY DURATION: 104-105 WK), Dose: 0, 12, 25, 50 MG/KG IN CORN OIL 5 D/WK FOR 103 WK (STUDY DURATION: 104-105 WK), Tumor Site: Type of Lesion: FORESTOMACH: SQUAMOUS CELL PAPILLOMA, SQUAMOUS CELL CARCINOMA): active; positive
carcinogen call (Species: RAT, Strain/Sex: F344/MALE, Route: GAVAGE, Dose: 0, 12, 25, 50 MG/KG IN CORN OIL 5 D/WK FOR 103 WK (STUDY DURATION: 105 WK), Dose: 0, 12, 25, 50 MG/KG IN CORN OIL 5 D/WK FOR 103 WK (STUDY DURATION: 105 WK), Tumor Site: Type of Lesion: FORESTOMACH: SQUAMOUS CELL CARCINOMA, SQUAMOUS CELL PAPILLOMA): active; positive

O=S(=O)(O)c1ccc(N=Nc2c(O)ccc3ccccc23)cc1
carcinogen call (Species: MOUSE, Strain/Sex: SWISS-WEBSTER/FEMALE, Route: DERMAL, Dose: 0, 1% IN 0.1 ML DISTILLED WATER 1/WK FOR 18 MO (STUDY DURATION: 18 MO)): inactive; negative
carcinogen call (Species: MOUSE, Strain/Sex: SWISS-WEBSTER/MALE, Route: DERMAL, Dose: 0, 1% IN 0.1 ML DISTILLED WATER 1/WK FOR 18 MO (STUDY DURATION: 18 MO)): inactive; negative

CNN
carcinogen call (Species: DOG, Strain/Sex: BEAGLE/FEMALE, Route: INHALATION, Dose: 0, 0.2, 2 PPM 6 HR/D 5 D/WK FOR 1 YR (STUDY DURATION: 6 YR), Dose: 0, 0.2, 2 PPM 6 HR/D 5 D/WK FOR 1 YR (STUDY DURATION: 6 YR)): inactive; negative
carcinogen call (Species: DOG, Strain/Sex: BEAGLE/MALE, Route: INHALATION, Dose: 0, 0.2, 2 PPM 6 HR/D 5 D/WK FOR 1 YR (STUDY DURATION: 6 YR), Dose: 0, 0.2, 2 PPM 6 HR/D 5 D/WK FOR 1 YR (STUDY DURATION: 6 YR)): inactive; negative
carcinogen call (Species: HAMSTER, Route: ORAL, Tumor Site: Type of Lesion: LIVER): active; positive
carcinogen call (Species: HAMSTER, Strain/Sex: SYRIAN/MALE, Route: INHALATION, Dose: 0, 0.2, 2, 5 PPM 6 HR/D 5 D/WK FOR 1 YR (STUDY DURATION: 1 YR), Dose: 0, 0.2, 2, 5 PPM 6 HR/D 5 D/WK FOR 1 YR (STUDY DURATION: 1 YR), Tumor Site: Type of Lesion: NASAL CAVITY: ADENOMA): active; positive
carcinogen call (Species: MOUSE, Route: ORAL, Tumor Site: Type of Lesion: LUNG): active; positive
carcinogen call (Species: MOUSE, Strain/Sex: C57BL/FEMALE, Route: INHALATION, Dose: 0, 0.02, 0.2, 2, 5 PPM 6 HR/D 5 D/WK FOR 1 YR (STUDY DURATION: 2 YR), Dose: 0, 0.02, 0.2, 2, 5 PPM 6 HR/D 5 D/WK FOR 1 YR (STUDY DURATION: 2 YR), Tumor Site: Type of Lesion: LUNG: ADENOMA, LIVER: ADENOMA, CARCINOMA, HEMATOPOIETIC SYSTEM: HEMANGIOMA, Tumor Site: Type of Lesion: LUNG: ADENOMA, LIVER: ADENOMA, CARCINOMA, HEMATOPOIETIC SYSTEM: HEMANGIOMA): active; positive
carcinogen call (Species: MOUSE, Strain/Sex: SWISS/FEMALE, Route: ORAL, Dose: 0.001% SOLUTION IN DRINKING WATER FOR LIFE (DAILY INTAKE: 0.078 MG) (STUDY DURATION: LIFETIME), Tumor Site: Type of Lesion: LUNG: ADENOMA, ADENOCARCINOMA, HEMATOPOIETIC SYSTEM: MALIGNANT LYMPHOMA, MAMMARY GLAND: ADENOCARCINOMA, Tumor Site: Type of Lesion: LUNG: ADENOMA, ADENOCARCINOMA, HEMATOPOIETIC SYSTEM: MALIGNANT LYMPHOMA, MAMMARY GLAND: ADENOCARCINOMA): active; positive
carcinogen call (Species: MOUSE, Strain/Sex: SWISS/MALE, Route: ORAL, Dose: 0.001% SOLUTION IN DRINKING WATER FOR LIFE (DAILY INTAKE: 0.102 MG) (STUDY DURATION: LIFETIME), Tumor Site: Type of Lesion: LUNG: ADENOMA, ADENOCARCINOMA, HEMATOPOIETIC SYSTEM: MALIGNANT LYMPHOMA): active; positive
carcinogen call (Species: RAT, Strain/Sex: F344/FEMALE, Route: INHALATION, Dose: 0, 0.02, 0.2, 2, 5 PPM 6 HR/D 5 D/WK FOR 1 YR (STUDY DURATION: 2 YR), Dose: 0, 0.02, 0.2, 2, 5 PPM 6 HR/D 5 D/WK FOR 1 YR (STUDY DURATION: 2 YR)): inactive; negative
carcinogen call (Species: RAT, Strain/Sex: F344/MALE, Route: INHALATION, Dose: 0, 0.02, 0.2, 2, 5 PPM 6 HR/D 5 D/WK FOR 1 YR (STUDY DURATION: 2 YR), Dose: 0, 0.02, 0.2, 2, 5 PPM 6 HR/D 5 D/WK FOR 1 YR (STUDY DURATION: 2 YR)): inactive; negative

— PubChem BioAssay AID1259411 (Chemical Carcinogenesis Research Information System (CCRIS), 2018)
